Biological target: USP7 (Homo sapiens, UniProt Q93009)
Assay: USP7 inhibitory potency (IC50)
Type: biochemical
Method: Activity for compounds described herein is provided in Table 2, wherein potency levels are provided as follows: (Potency: USP7 IC50: A<0.01 μM; B=0.01-0.1 μM; C=>0.1 μM.

USP7, sequence (Q93009 whole entry): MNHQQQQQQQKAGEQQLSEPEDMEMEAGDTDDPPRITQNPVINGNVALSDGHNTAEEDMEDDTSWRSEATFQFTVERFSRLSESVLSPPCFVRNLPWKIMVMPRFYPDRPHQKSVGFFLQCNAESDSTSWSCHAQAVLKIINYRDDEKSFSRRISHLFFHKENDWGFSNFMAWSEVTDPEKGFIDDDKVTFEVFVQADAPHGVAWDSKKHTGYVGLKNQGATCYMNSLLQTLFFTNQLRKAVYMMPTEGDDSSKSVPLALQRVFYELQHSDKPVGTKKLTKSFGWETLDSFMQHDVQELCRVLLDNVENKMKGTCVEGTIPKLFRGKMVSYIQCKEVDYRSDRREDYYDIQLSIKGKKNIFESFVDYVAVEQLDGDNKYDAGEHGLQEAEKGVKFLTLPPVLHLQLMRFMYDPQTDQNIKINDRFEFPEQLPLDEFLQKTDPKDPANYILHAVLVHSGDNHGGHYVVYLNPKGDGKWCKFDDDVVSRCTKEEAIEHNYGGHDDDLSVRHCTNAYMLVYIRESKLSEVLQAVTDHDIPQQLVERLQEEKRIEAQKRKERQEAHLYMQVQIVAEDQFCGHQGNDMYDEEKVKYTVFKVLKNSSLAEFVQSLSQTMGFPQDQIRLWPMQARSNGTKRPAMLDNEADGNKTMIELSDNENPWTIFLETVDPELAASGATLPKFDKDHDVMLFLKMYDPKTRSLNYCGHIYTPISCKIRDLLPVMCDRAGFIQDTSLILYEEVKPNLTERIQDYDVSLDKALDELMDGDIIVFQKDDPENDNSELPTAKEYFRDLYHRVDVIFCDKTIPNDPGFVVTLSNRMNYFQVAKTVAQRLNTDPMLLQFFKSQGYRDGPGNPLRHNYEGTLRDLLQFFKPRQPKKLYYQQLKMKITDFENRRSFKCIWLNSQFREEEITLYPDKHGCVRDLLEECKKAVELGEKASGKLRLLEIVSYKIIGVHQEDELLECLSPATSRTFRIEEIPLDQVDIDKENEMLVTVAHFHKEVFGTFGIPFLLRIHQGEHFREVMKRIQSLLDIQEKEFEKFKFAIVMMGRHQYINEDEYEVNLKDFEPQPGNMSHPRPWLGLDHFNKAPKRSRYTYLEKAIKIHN

Row | Compound | IC50 [nM]
1 | Cc1cc(Cl)cc(-c2ncnc3cc(CN4CCCC4=O)sc23)c1C[C@@H]1CNCC(C)(C)O1 [Example 235, (R)-1-((4-(5-chloro-2-((6,6-dimethylmorpholin-2-yl)methyl)-3-methylphenyl)thieno[3,2-d]pyrimidin-6-yl)methyl)pyrrolidin-2-one] | 10 to 100
2 | Cc1cc(Cl)cc(-c2ccnc3cc(CN4C(=O)CCC4=O)sc23)c1CN1[C@H](C)CNC[C@H]1C [Example 27, 1-((7-(5-chloro-2-(((2R,6R)-2,6-dimethylpiperazin-1-yl)methyl)-3-methylphenyl)thieno[3,2-b]pyridin-2-yl)methyl)pyrrolidine-2,5-dione] | 10 to 100
3 | Cc1cc(Cl)cc(-c2ncnc3cc(CN4C(=O)CC[C@H]4C(F)(F)F)sc23)c1CN1[C@@H](C)CNC[C@@H]1C [Example 90, (S)-1-((4-(5-chloro-2-(((2S,6S)-2,6-dimethylpiperazin-1-yl)methyl)-3-methylphenyl)thieno[3,2-d]pyrimidin-6-yl)methyl)-5-(trifluoromethyl)pyrrolidin-2-one] | > 100
4 | Cc1cc(Cl)cc(-c2ncnc3cc(CN4C(=O)CN(CC(F)F)C4=O)sc23)c1CN1[C@@H](C)CNC[C@@H]1C [Example 277, 3-((4-(5-chloro-2-(((2S,6S)-2,6-dimethylpiperazin-1-yl)methyl)-3-methylphenyl)thieno[3,2-d]pyrimidin-6-yl)methyl)-1-(2,2-difluoroethyl)imidazolidine-2,4-dione] | < 10
5 | Cc1cc(Cl)cc(-c2ncnc3cc(C(C)N4C(=O)C5C(C4=O)C5(C)C)sc23)c1C[C@@H]1CNCCO1 (stereo partly drawn) [Example 209, 3-(1-(4-(5-chloro-3-methyl-2-(((R)-morpholin-2-yl)methyl)phenyl)thieno[3,2-d]pyrimidin-6-yl)ethyl)-6,6-dimethyl-3-azabicyclo[3.1.0]hexane-2,4-dione] | < 10
6 | Cc1cc(Cl)cc(-c2ncnc3cc(CN4C(=O)C5CC5C4=O)sc23)c1CC1(C)CNCCO1 (stereo not shown) [Example 156, 3-((4-(5-chloro-3-methyl-2-((2-methylmorpholin-2-yl)methyl)phenyl)thieno[3,2-d]pyrimidin-6-yl)methyl)-3-azabicyclo[3.1.0]hexane-2,4-dione] | 10 to 100
7 | Cc1cc(Cl)cc(-c2ccnc3cc(CN4C(=O)CCC4=O)sc23)c1CC1CNCC2(CCC2)O1 (stereo not shown) [Example 143, 1-((7-(2-((5-oxa-8-azaspiro[3.5]nonan-6-yl)methyl)-5-chloro-3-methylphenyl)thieno[3,2-b]pyridin-2-yl)methyl)pyrrolidine-2,5-dione] | < 10
8 | CCC1CCC(=O)N1Cc1cc2ncnc(-c3cc(Cl)cc(C)c3C[C@@H]3CNCC(C)(C)O3)c2s1 (stereo partly drawn) [Example 232, 1-((4-(5-chloro-2-(((R)-6,6-dimethylmorpholin-2-yl)methyl)-3-methylphenyl)thieno[3,2-d]pyrimidin-6-yl)methyl)-5-ethylpyrrolidin-2-one] | 10 to 100
9 | Cc1cc(Cl)cc(-c2ccnc3cc(CN4C(=O)C5CC5C4=O)sc23)c1CC1CNCCO1 (stereo not shown) [Example 102, 3-((7-(5-chloro-3-methyl-2-(morpholin-2-ylmethyl)phenyl)thieno[3,2-b]pyridin-2-yl)methyl)-3-azabicyclo[3.1.0]hexane-2,4-dione] | < 10
10 | Cc1cc(Cl)cc(-c2ccnc3cc(CN4C(=O)C5CC5C4=O)sc23)c1CN1C[C@@H](C)NC[C@@H]1C (stereo partly drawn) [Example 36, 3-((7-(5-chloro-2-(((2S,5R)-2,5-dimethylpiperazin-1-yl)methyl)-3-methylphenyl)thieno[3,2-b]pyridin-2-yl)methyl)-3-azabicyclo[3.1.0]hexane-2,4-dione] | 10 to 100
11 | Cc1cc(Cl)cc(-c2ncnc3cc(Cn4cccc4C#N)sc23)c1C[C@@H]1CNCC(C)(C)O1 [Example 239, (R)-1-((4-(5-chloro-2-((6,6-dimethylmorpholin-2-yl)methyl)-3-methylphenyl)thieno[3,2-d]pyrimidin-6-yl)methyl)-1H-pyrrole-2-carbonitrile] | > 100
12 | C[C@H]1CNC[C@H](C)N1Cc1c(Cl)cc(Cl)cc1-c1ccnc2cc(CN3C(=O)CCN(C)C3=O)sc12 [Example 49, 3-((7-(3,5-dichloro-2-(((2S,6S)-2,6-dimethylpiperazin-1-yl)methyl)phenyl)thieno[3,2-b]pyridin-2-yl)methyl)-1-methyldihydropyrimidine-2,4(1H,3H)-dione] | < 10
13 | Cc1cc(Cl)cc(-c2ccnc3cc(CN4C(=O)CCC4=O)sc23)c1CN1CCN(C(C)C)C[C@@H]1C [Example 21, (S)-1-((7-(5-chloro-2-((4-isopropyl-2-methylpiperazin-1-yl)methyl)-3-methylphenyl)thieno[3,2-b]pyridin-2-yl)methyl)pyrrolidine-2,5-dione] | < 10
14 | Cc1cc(Cl)cc(-c2ncnc3cc(CN4CC(C(F)F)CC4=O)sc23)c1C[C@@H]1CNCC(C)(C)O1 (stereo partly drawn) [Example 228, 1-((4-(5-chloro-2-(((R)-6,6-dimethylmorpholin-2-yl)methyl)-3-methylphenyl)thieno[3,2-d]pyrimidin-6-yl)methyl)-4-(difluoromethyl)pyrrolidin-2-one] | 10 to 100
15 | Cc1cc(Cl)cc(-c2ccnc3cc(CN4C(=O)CCC4=O)sc23)c1CC1CNCCO1 (stereo not shown) [Example 96, 1-((7-(5-chloro-3-methyl-2-(morpholin-2-ylmethyl)phenyl)thieno[3,2-b]pyridin-2-yl)methyl)pyrrolidine-2,5-dione] | 10 to 100
16 | Cc1cc(Cl)cc(-c2ncnc3cc(CN4C(=O)CCC4=O)sc23)c1C[C@@H]1CNCCO1 [Example 197, (R)-1-((4-(5-chloro-3-methyl-2-(morpholin-2-ylmethyl)phenyl)thieno[3,2-d]pyrimidin-6-yl)methyl)pyrrolidine-2,5-dione] | < 10
17 | Cc1cc(Cl)cc(-c2ncnc3cc(CN4C(=O)OC[C@@H]4CO)sc23)c1C[C@@H]1CNCC(C)(C)O1 [Example 268, (S)-3-((4-(5-chloro-2-(((R)-6,6-dimethylmorpholin-2-yl)methyl)-3-methylphenyl)thieno[3,2-d]pyrimidin-6-yl)methyl)-4-(hydroxymethyl)oxazolidin-2-one] | < 10
18 | Cc1cc(Cl)cc(-c2ncnc3cc(CN4C(=O)C5C(C4=O)C5(C)C)sc23)c1C[C@@H]1CN(C(=O)C(F)(F)F)CCO1 (stereo partly drawn) [Example 201, 3-((4-(5-chloro-3-methyl-2-(((R)-4-(2,2,2-trifluoroacetyl)morpholin-2-yl)methyl)phenyl)thieno[3,2-d]pyrimidin-6-yl)methyl)-6,6-dimethyl-3-azabicyclo[3.1.0]hexane-2,4-dione] | 10 to 100
19 | Cc1cc(Cl)cc(-c2ncnc3cc(CN4CC(CO)CC4=O)sc23)c1C[C@@H]1CNCC(C)(C)O1 (stereo partly drawn) [Example 231, 1-((4-(5-chloro-2-(((R)-6,6-dimethylmorpholin-2-yl)methyl)-3-methylphenyl)thieno[3,2-d]pyrimidin-6-yl)methyl)-4-(hydroxymethyl)pyrrolidin-2-one] | 10 to 100

Results, then the compound that gave them:

Row | IC50 [nM] | Compound
20 | < 10 | Cc1cc(Cl)cc(-c2ncnc3cc(CN4C(=O)COC4=O)sc23)c1C[C@@H]1CNCC(C)(C)O1 [Example 234, (R)-3-((4-(5-chloro-2-((6,6-dimethylmorpholin-2-yl)methyl)-3-methylphenyl)thieno[3,2-d]pyrimidin-6-yl)methyl)oxazolidine-2,4-dione]
21 | < 10 | Cc1cc(Cl)cc(-c2ncnc3cc(CN4C(=O)C5CC5C4=O)sc23)c1CC1CNCC2(CCC2)O1 (stereo not shown) [Example 207, 3-((4-(2-((5-oxa-8-azaspiro[3.5]nonan-6-yl)methyl)-5-chloro-3-methylphenyl)thieno[3,2-d]pyrimidin-6-yl)methyl)-3-azabicyclo[3.1.0]hexane-2,4-dione]
22 | < 10 | Cc1cc(Cl)cc(-c2ccnc3cc(CN4C(=O)CCN(C)C4=O)sc23)c1CC1CNCC2(CCC2)O1 (stereo not shown) [Example 144, 3-((7-(2-((5-oxa-8-azaspiro[3.5]nonan-6-yl)methyl)-5-chloro-3-methylphenyl)thieno[3,2-b]pyridin-2-yl)methyl)-1-methyldihydropyrimidine-2,4(1H,3H)-dione]
23 | < 10 | Cc1cc(Cl)cc(-c2ncnc3cc(CN4C(=O)CCCC4=O)sc23)c1CN1C[C@@H](C)NC[C@@H]1C [Example 69, 1-((4-(5-chloro-2-(((2S,5R)-2,5-dimethylpiperazin-1-yl)methyl)-3-methylphenyl)thieno[3,2-d]pyrimidin-6-yl)methyl)piperidine-2,6-dione]
24 | < 10 | Cc1cc(Cl)cc(-c2ccnc3cc(CN4C(=O)CN(C)C4=O)sc23)c1CC1CNCC(C)(C)O1 (stereo not shown) [Example 121, 3-((7-(5-chloro-2-((6,6-dimethylmorpholin-2-yl)methyl)-3-methylphenyl)thieno[3,2-b]pyridin-2-yl)methyl)-1-methylimidazolidine-2,4-dione]
25 | < 10 | Cc1cc(Cl)cc(-c2ncnc3cc(CN4C(=O)C5CC5C4=O)sc23)c1C[C@H]1OCCN[C@@H]1C (stereo partly drawn) [Example 160, 3-((4-(5-chloro-3-methyl-2-(((2R,3R)-3-methylmorpholin-2-yl)methyl)phenyl)thieno[3,2-d]pyrimidin-6-yl)methyl)-3-azabicyclo[3.1.0]hexane-2,4-dione]
26 | < 10 | Cc1cc(Cl)cc(-c2ccnc3cc(CN4C(=O)CN(C)C4=O)sc23)c1CC1CNCCO1 (stereo not shown) [Example 117, 3-((7-(5-chloro-3-methyl-2-(morpholin-2-ylmethyl)phenyl)thieno[3,2-b]pyridin-2-yl)methyl)-1-methylimidazolidine-2,4-dione]
27 | < 10 | 3-((4-(2-((5-oxa-8-azaspiro[3.5]nonan-6-yl)methyl)-5-chloro-3-methylphenyl)thieno[3,2-d]pyrimidin-6-yl)methyl)-3-azabicyclo[3.1.0]hexane-2,4-dione [Example 221]
28 | < 10 | CN1CCC(=O)N(Cc2cc3nccc(-c4cc(Cl)cc(Cl)c4CC4CNCC(C)(C)O4)c3s2)C1=O (stereo not shown) [Example 135, 3-((7-(3,5-dichloro-2-((6,6-dimethylmorpholin-2-yl)methyl)phenyl)thieno[3,2-b]pyridin-2-yl)methyl)-1-methyldihydropyrimidine-2,4(1H,3H)-dione]

From patent US11084829B2, “Ubiquitin-specific-processing protease 7 (USP7) modulators and uses thereof” (RAPT THERAPEUTICS, INC., priority 2018, dated 2021)
